# Target: T1, B1R receptor of the rat (rB1R) (Rattus norvegicus, UniProt P97583)
# T1 construct: expressed in transfected cells; host or cells: CHO K1 cells
# T1 sequence (P97583 1-337): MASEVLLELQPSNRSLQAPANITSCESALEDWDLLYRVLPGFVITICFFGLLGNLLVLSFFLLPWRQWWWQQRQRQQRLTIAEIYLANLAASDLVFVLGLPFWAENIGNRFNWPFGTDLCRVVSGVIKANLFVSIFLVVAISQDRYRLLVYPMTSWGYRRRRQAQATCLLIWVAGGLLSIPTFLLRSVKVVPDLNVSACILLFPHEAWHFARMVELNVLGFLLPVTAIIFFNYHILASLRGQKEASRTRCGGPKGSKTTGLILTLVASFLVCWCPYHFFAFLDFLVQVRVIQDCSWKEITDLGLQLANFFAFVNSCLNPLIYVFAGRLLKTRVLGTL
# Assay: Functional investigation on the bradykinin 1 receptor (B1R), FLIPR Ca2+ assay, rB1R cells
# Format: cell-based
# Conditions: CHO-K1, 10 μM test substance; CHO K1 cells with rat B1R; agonist Des-Arg9 bradykinin; % of maximum achievable inhibition; read-out: B1R antagonism, rat [10 μM] % inhibition
# Method: The indication in % activation is based on the Ca^2+ signal after addition of Lys-Des-[…] bradykinin (0.5 nM) or Des-[…] bradykinin (100 nM). Antagonists lead to a suppression of the Ca^2+ influx following administration of the agonist. The % inhibition in comparison with the maximum achievable inhibition is indicated. […] According to this assay, the Ca^2+ inflow through the channel is quantified with the aid of a Ca^2+-sensitive dye (Fluo-4 type, Molecular Probes Europe BV, Leiden, Netherlands) in a fluorescent imaging plate reader (FLIPR, Molecular Devices, Sunnyvale, USA). […] For functional investigations these cells are plated-out onto black 96-well plates with a clear base (BD Biosciences, Heidelberg, Germany or Greiner, Frickenhausen, Germany) in a density of 20,000-35,000 cells/well. Overnight the cells are incubated at 37° C. and 5% CO2 in culture medium (hB1R cells: Ham's Nutrient Mixture F12, Gibco Invitrogen GmbH, Karlsruhe, Germany or DMEM, Sigma-Aldrich, Taufkirchen, Germany; rB1R cells: D-MEM/F12, Gibco Invitrogen, Karlsruhe, Germany) with 10 vol. % FBS (foetal bovine serum, Gibco Invitrogen GmbH, Karlsruhe, Germany or PAN Biotech GmbH, Aidenbach, Germany). On the following day the cells are loaded with 2.13 μM Fluo-4 (Molecular Probes Europe BV, Leiden, Netherlands) in HBSS buffer (Hank's buffered saline solution, Gibco Invitrogen GmbH, Karlsruhe, Germany) with 2.5 mM probenecid (Sigma-Aldrich, Taufkirchen, Germany) and 10 mM HEPES (Sigma-Aldrich, Taufkirchen, Germany) for 60 min at 37° C. […] Sigma-Aldrich, Taufkirchen, Germany), 5.6 mM glucose and 0.05% gelatine (Merck KGaA, Darmstadt, Germany) is added. After a further incubation of 20 minutes at room temperature, the plates are inserted into the FLIPR for Ca^2+ measurement. Alternatively they are washed with buffer A (15 mM HEPES, 80 mM NaCl, 5 mM KCl, 1.2 mM CaCl2, 0.7 mM MgSO4, 2 g/l glucose, 2.5 mM probenecid) and loaded with buffer A with added 2.5 μM Fluo-4 and 0.025% Pluronic F127 (Sigma-Aldrich, Taufkirchen, Germany). The cells are then washed twice with buffer A and incubated for 30 minutes with buffer A, which additionally contains 0.05% BSA and 0.05% gelatine, at room temperature and then used for Ca^2+ measurement in the FLIPR. The Ca^2+-dependent fluorescence is measured here before and after addition of substances (λex=488 nm, λem=540 nm). The quantification is performed by measuring the highest fluorescence intensity (FC, fluorescence counts) over time. The FLIPR protocol comprises two additions of substance. […] Lys-Des-[…] bradykinin>=50 nM; rB1R: […] Antagonists lead to a suppression of the Ca^2+ inflow. The % inhibition in comparison with the maximum achievable inhibition is calculated. The substances are added in varying concentrations in order to determine the IC50 value. Double or triple determinations (n=2 or n=3) are performed and these are repeated in at least one further independent experiment (N>=2).
row,inhibition at 10 µM [%],Structure (SMILES)
1,89,"Cc1cc(S(=O)(=O)Nc2ccc3ccn(CC(=O)NCCC4CCN(c5ccncc5)CC4)c3c2)c(C)cc1Cl [G_CC-24, 2-[6-[[(4-Chloro-2,5-dimethyl-phenyl)sulfonyl]amino]-1H-indol-1-yl]-N-[2-(1-pyridin-4-yl-piperidin-4-yl)-ethyl]-acetamide]"
2,58,"CN(CCCN1CCC(c2cccs2)(N(C)C)CC1)C(=O)Cn1ccc2cccc(NS(=O)(=O)c3cccc4ccccc34)c21 [G_CC-25, N-[3-(4-Dimethylamino-4-thiophen-2-yl-piperidin-1-yl)-propyl]-N-methyl-2-[7-[(naphthalen-1-ylsulfonyl)amino]-1H-indol-1-yl]-acetamide]"
3,82,"Cc1cc(S(=O)(=O)Nc2cccc3ccn(CC(=O)NCCC4CCN(c5ccncc5)CC4)c23)c(C)cc1Cl [G_CC-28, 2-[7-[[(4-Chloro-2,5-dimethyl-phenyl)sulfonyl]amino]-1H-indol-1-yl]-N-[2-(1-pyridin-4-yl-piperidin-4-yl)-ethyl]-acetamide]"
4,91,"COc1cc(C)c(S(=O)(=O)Nc2cccc3ccn(CC(=O)N4CCC5(CC4)C(=O)N(C)CC5c4ccc(F)cc4)c23)c(C)c1 (centres unmarked) [G_CC-31, N-[1-[2-[1-(4-Fluorophenyl)-3-methyl-4-oxo-3,8-diazaspiro[4.5]decan-8-yl]-2-oxo-ethyl]-1H-indol-7-yl]-4-methoxy-2,6-dimethyl-benzenesulfonic acid amide]"
5,58,"COc1cc(C)c(S(=O)(=O)Nc2cccc3ccn(CC(=O)N4CC5CC4CN5Cc4ccncc4)c23)c(C)c1 (centres unmarked) [G_CC-34, 4-Methoxy-2,6-dimethyl-N-[1-[2-oxo-2-[2-(pyridin-4-yl-methyl)-2,5-diazabicyclo[2.2.1]heptan-5-yl]-ethyl]-1H-indol-7-yl]-benzenesulfonic acid amide]"
6,72,"COc1cc(C)c(S(=O)(=O)Nc2ccc3ccn(CCC(=O)N4CCC5(CC4)CCN(c4ccncc4)CC5)c3c2)c(C)c1 [G_CC-35, 4-Methoxy-2,6-dimethyl-N-[1-[3-oxo-3-(3-pyridin-4-yl-3,9-diazaspiro[5.5]undecan-9-yl)-propyl]-1H-indol-6-yl]-benzenesulfonic acid amide]"
7,63,"Cc1cc(S(=O)(=O)Nc2ccc3ccn(CC(=O)N4CCC5(CC4)CCN(c4ccncc4)CC5)c3c2)c(C)cc1Cl [G_CC-36, 4-Chloro-2,5-dimethyl-N-[1-[2-oxo-2-(3-pyridin-4-yl-3,9-diazaspiro[5.5]undecan-9-yl)-ethyl]-1H-indol-6-yl]-benzenesulfonic acid amide]"
8,91,"O=C(Cn1ccc2ccc(NS(=O)(=O)c3ccccc3C(F)(F)F)cc21)N1CCC2(CC1)CCN(c1ccncc1)CC2 [G_CC-37, N-[1-[2-Oxo-2-(3-pyridin-4-yl-3,9-diazaspiro[5.5]undecan-9-yl)-ethyl]-1H-indol-6-yl]-2-(trifluoromethyl)-benzenesulfonic acid amide]"
9,96,"O=C(Cn1ccc2cccc(NS(=O)(=O)c3cccc4ccccc34)c21)N1CCC2(CC1)CCN(c1ccncc1)CC2 [G_CC-38, N-[1-[2-Oxo-2-(3-pyridin-4-yl-3,9-diazaspiro[5.5]undecan-9-yl)-ethyl]-1H-indol-7-yl]-naphthalene-1-sulfonic acid amide]"
10,95,"Cc1cc(S(=O)(=O)Nc2cccc3ccn(CC(=O)N4CCC5(CC4)CCN(c4ccncc4)CC5)c23)c(C)cc1Cl [G_CC-39, 4-Chloro-2,5-dimethyl-N-[1-[2-oxo-2-(3-pyridin-4-yl-3,9-diazaspiro[5.5]undecan-9-yl)-ethyl]-1H-indol-7-yl]-benzenesulfonic acid amide]"
11,76,"COc1cc(C)c(S(=O)(=O)Nc2cccc3ccn(CCC(=O)N4CCC(CCN5CCCC5)CC4)c23)c(C)c1 [G_CC-41, 4-Methoxy-2,6-dimethyl-N-[1-[3-oxo-3-[4-(2-pyrrolidin-1-yl-ethyl)-piperidin-1-yl]-propyl]-1H-indol-7-yl]-benzenesulfonic acid amide]"
12,66,"COc1cc(C)c(S(=O)(=O)Nc2cccc3ccn(CCC(=O)N4CCC(N5CCN(C)CC5)CC4)c23)c(C)c1 [G_CC-42, 4-Methoxy-2,6-dimethyl-N-[1-[3-[4-(4-methyl-piperazin-1-yl)-piperidin-1-yl]-3-oxo-propyl]-1H-indol-7-yl]-benzenesulfonic acid amide]"

# The next lines start with the compound.
row,Structure (SMILES),inhibition at 10 µM [%]
1,"COc1cc(C)c(S(=O)(=O)Nc2ccc3ccn(CCC(=O)NCCN4CCC(c5cccs5)(N(C)C)CC4)c3c2)c(C)c1 [G_CC-22, N-[2-(4-Dimethylamino-4-thiophen-2-yl-piperidin-1-yl)-ethyl]-3-[6-[[(4-methoxy-2,6-dimethyl-phenyl)sulfonyl]amino]-1H-indol-1-yl]-propionamide]",59
2,"COc1cc(C)c(S(=O)(=O)Nc2ccc3ccn(CCC(=O)NCCC4CCN(c5ccncc5)CC4)c3c2)c(C)c1 [G_CC-23, 3-[6-[[(4-Methoxy-2,6-dimethyl-phenyl)sulfonyl]amino]-1H-indol-1-yl]-N-[2-(1-pyridin-4-yl-piperidin-4-yl)-ethyl]-propionamide]",63
3,"Cc1cc(S(=O)(=O)Nc2cccc3ccn(CC(=O)N(C)CCCN4CCC(c5cccs5)(N(C)C)CC4)c23)c(C)cc1Cl [G_CC-26, 2-[7-[[(4-Chloro-2,5-dimethyl-phenyl)sulfonyl]amino]-1H-indol-1-yl]-N-[3-(4-dimethylamino-4-thiophen-2-yl-piperidin-1-yl)-propyl]-N-methyl-acetamide]",81
4,"Cc1cc(S(=O)(=O)Nc2cccc3ccn(CC(=O)NCCN4CCC(c5cccs5)(N(C)C)CC4)c23)c(C)cc1Cl [G_CC-27, 2-[7-[[(4-Chloro-2,5-dimethyl-phenyl)sulfonyl]amino]-1H-indol-1-yl]-N-[2-(4-dimethylamino-4-thiophen-2-yl-piperidin-1-yl)-ethyl]-acetamide]",56
5,"COc1cc(C)c(S(=O)(=O)Nc2ccc3ccn(CC(=O)N(C)CCCN4CCC(c5cccs5)(N(C)C)CC4)c3c2)c(C)c1 [G_CC-29, N-[3-(4-Dimethylamino-4-thiophen-2-yl-piperidin-1-yl)-propyl]-2-[6-[[(4-methoxy-2,6-dimethyl-phenyl)sulfonyl]amino]-1H-indol-1-yl]-N-methyl-acetamide]",92
6,"COc1cc(C)c(S(=O)(=O)Nc2ccc3ccn(CC(=O)NCCN4CCC(c5cccs5)(N(C)C)CC4)c3c2)c(C)c1 [G_CC-30, N-[2-(4-Dimethylamino-4-thiophen-2-yl-piperidin-1-yl)-ethyl]-2-[6-[[(4-methoxy-2,6-dimethyl-phenyl)sulfonyl]amino]-1H-indol-1-yl]-acetamide]",53
7,"COc1cc(C)c(S(=O)(=O)Nc2ccc3ccn(CC(=O)N4CC5CC4CN5Cc4ccc(F)cc4)c3c2)c(C)c1 (centres unmarked) [G_CC-33, N-[1-[2-[2-[(4-Fluorophenyl)-methyl]-2,5-diazabicyclo[2.2.1]heptan-5-yl]-2-oxo-ethyl]-1H-indol-6-yl]-4-methoxy-2,6-dimethyl-benzenesulfonic acid amide]",71
8,"COc1cc(C)c(S(=O)(=O)Nc2cccc3ccn(CCC(=O)N4CCN(C5CCN(C)CC5)CC4)c23)c(C)c1 [G_CC-40, 4-Methoxy-2,6-dimethyl-N-[1-[3-[4-(1-methyl-piperidin-4-yl)-piperazin-1-yl]-3-oxo-propyl]-1H-indol-7-yl]-benzenesulfonic acid amide]",86

# From patent US8492559B2, “Substituted indole compounds” (Gruenenthal GmbH, priority 2009, dated 2013)
